Our source for the fold change (FC) and inhibition values is ChEMBL document CHEMBL5653631, “A Potent and Selective ULK1 Inhibitor Suppresses Autophagy and Sensitizes Cancer Cells to Nutrient Stress” (iScience, 2018).

Usually inhibition stands for the relative decrease from the control value, in per cent.

Assay [1] deals with Receptor-interacting serine/threonine-protein kinase 2 (Homo sapiens) (UniProt O43353). Briefly: Inhibition of human recombinant RIPK2 at 40 nM related to control ULK1.
Assay [2] addresses Tyrosine-protein kinase HCK (Homo sapiens) (UniProt P08631). Briefly: Inhibition of human recombinant HCK at 40 nM related to control ULK1.
For assay [3], the target named is T1, Ephrin type-B receptor 2 (Homo sapiens) (UniProt P29323).
T1 sequence (whole entry): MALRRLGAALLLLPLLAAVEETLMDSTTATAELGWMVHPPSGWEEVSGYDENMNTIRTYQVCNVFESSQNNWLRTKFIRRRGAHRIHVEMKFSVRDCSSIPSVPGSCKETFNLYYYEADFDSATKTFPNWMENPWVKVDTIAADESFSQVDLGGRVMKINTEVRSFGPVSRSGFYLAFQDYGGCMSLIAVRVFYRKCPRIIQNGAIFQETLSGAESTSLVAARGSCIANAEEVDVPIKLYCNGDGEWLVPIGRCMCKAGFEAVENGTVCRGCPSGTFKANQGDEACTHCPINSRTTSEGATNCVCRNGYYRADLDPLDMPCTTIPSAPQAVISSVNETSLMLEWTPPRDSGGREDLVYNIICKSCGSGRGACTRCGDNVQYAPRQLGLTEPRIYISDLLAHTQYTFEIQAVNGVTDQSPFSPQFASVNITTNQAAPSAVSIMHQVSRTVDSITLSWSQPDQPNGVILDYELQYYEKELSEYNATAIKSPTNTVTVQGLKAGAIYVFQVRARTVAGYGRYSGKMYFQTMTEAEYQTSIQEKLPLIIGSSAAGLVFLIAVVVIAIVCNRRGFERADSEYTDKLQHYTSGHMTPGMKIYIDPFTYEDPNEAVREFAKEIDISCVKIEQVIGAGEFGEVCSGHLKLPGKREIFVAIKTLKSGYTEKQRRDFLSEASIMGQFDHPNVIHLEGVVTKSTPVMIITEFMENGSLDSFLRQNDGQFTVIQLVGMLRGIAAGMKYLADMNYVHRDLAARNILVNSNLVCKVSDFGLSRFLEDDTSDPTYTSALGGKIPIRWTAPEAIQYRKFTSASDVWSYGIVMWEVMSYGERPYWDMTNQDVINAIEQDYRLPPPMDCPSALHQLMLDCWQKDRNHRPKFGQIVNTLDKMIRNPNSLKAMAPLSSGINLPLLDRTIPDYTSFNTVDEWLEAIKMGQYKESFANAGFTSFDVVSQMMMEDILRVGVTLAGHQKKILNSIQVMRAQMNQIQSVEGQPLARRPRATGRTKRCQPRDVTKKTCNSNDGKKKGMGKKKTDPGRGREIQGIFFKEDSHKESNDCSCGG
Briefly: Inhibition of human recombinant EphB2 at 40 nM related to control ULK1.

The target of assay [4] is Activin receptor type-2A (Homo sapiens) (UniProt P27037). Put plainly: Inhibition of human recombinant ACTR2 at 40 nM in presence of ATP by radiometric assay relative to control.
For assay [5], the target named is Tau-tubulin kinase 2 (Homo sapiens) (UniProt Q6IQ55). Briefly: Inhibition of human recombinant TTBK2 at 40 nM in presence of ATP by radiometric assay relative to control.
In assay [6] the target is T2, Testis-specific serine/threonine-protein kinase 4 (Homo sapiens) (UniProt Q6SA08).
T2 sequence (whole entry): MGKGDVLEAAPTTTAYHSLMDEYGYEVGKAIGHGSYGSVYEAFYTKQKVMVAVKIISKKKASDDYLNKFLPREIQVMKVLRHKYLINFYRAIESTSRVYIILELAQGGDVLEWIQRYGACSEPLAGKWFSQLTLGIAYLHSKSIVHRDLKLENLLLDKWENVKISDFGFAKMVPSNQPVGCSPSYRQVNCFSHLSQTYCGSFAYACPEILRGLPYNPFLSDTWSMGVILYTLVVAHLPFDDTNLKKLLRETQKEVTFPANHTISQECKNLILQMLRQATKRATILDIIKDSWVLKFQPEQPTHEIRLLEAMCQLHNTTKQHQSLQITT
Briefly: Inhibition of human recombinant TSSK4 at 40 nM in presence of ATP by radiometric assay relative to control.

Assay [7] deals with T3, Phosphorylase b kinase gamma catalytic chain, liver/testis isoform (Homo sapiens) (UniProt P15735).
T3 sequence (whole entry): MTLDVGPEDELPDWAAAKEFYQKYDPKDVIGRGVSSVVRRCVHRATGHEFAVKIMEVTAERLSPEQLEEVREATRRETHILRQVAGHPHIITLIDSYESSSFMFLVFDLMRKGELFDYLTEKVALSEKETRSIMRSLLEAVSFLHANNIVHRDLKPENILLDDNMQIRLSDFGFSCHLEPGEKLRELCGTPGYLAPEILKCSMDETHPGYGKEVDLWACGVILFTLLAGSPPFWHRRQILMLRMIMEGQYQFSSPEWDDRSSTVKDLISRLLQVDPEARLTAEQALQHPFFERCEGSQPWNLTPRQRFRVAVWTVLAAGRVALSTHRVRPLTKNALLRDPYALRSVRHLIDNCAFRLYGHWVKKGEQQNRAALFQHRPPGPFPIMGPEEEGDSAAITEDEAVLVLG
Briefly: Inhibition of human recombinant PHKg2 at 500 nM related to control ULK1.

For assay [8], the target named is Casein kinase I isoform gamma-2 (Homo sapiens) (UniProt P78368). Put plainly: Inhibition of human recombinant CK1g2 at 500 nM in presence of ATP by radiometric assay relative to control.
For assay [9], the target named is Receptor tyrosine-protein kinase erbB-2 (Homo sapiens) (UniProt P04626). Briefly: Inhibition of human recombinant ErbB2 at 500 nM in presence of ATP by radiometric assay relative to control.
In assay [10] the target is Serine/threonine-protein kinase tousled-like 2 (Homo sapiens) (UniProt Q86UE8). Put plainly: Inhibition of human recombinant TLK2 at 500 nM in presence of ATP by radiometric assay relative to control.
The target of assay [11] is Tyrosine-protein kinase JAK2 (Homo sapiens) (UniProt O60674). Briefly: Inhibition of human recombinant JAK2 at 15 nM in presence of ATP by radiometric assay relative to control.
Assay [12] addresses Myosin light chain kinase, smooth muscle (Homo sapiens) (UniProt Q15746). Put plainly: Inhibition of human recombinant smMLCK at 15 nM in presence of ATP by radiometric assay relative to control.
For assay [13], the target named is Ephrin type-A receptor 2 (Homo sapiens) (UniProt P29317). Put plainly: Inhibition of human recombinant EphA2 at 15 nM related to control ULK1.
Assay [14] has as its target Leukocyte tyrosine kinase receptor (Homo sapiens) (UniProt P29376). Briefly: Inhibition of human recombinant LTK at 15 nM in presence of ATP by radiometric assay relative to control.
Assay [15] has as its target Misshapen-like kinase 1 (Homo sapiens) (UniProt Q8N4C8). Briefly: Inhibition of human recombinant MINK at 15 nM related to control ULK1.

As to `O=C(N[C@@H](C1CC1)C(F)(F)F)c1cc(-c2cnn3cc(-c4ccc(F)cc4)cnc23)cs1`, the fold change (FC) in [1] is 0.41; in [2], 0; in assay [3], 0.05. Further, the inhibition is 1% in [4], 0% in assay [5] and 0% in assay [6].
Take `CNC(=O)c1ccccc1Oc1nc(Nc2cc(OC)c(OC)c(OC)c2)ncc1Br`: the fold change (FC) in assay [7] came out at 0. In addition, the inhibition in [8], in [9] and in assay [10] was 0% throughout.
As to `CC(C)[C@H](NC(=O)c1cc(-c2cnn3cc(-c4ccc(OCCN5CCCCC5)cc4)cnc23)cs1)C(F)(F)F`, the inhibition in [11] amounted to 6%; in [12] it was 0%; in [14] it was 0%. Further, the fold change (FC) in assay [13] was determined as 0; in assay [15] it was 0.05.
